Test results as given in ChEMBL document CHEMBL5543167, “Design, Synthesis, and Biological Evaluation of Novel EGFR PROTACs Targeting C797S Mutation” (J Med Chem, 2024).
The source made the active and inactive calls. The calls are words filed in the database; no cut-off is given here.

How the values were obtained:
[1] = Tmax in male Sprague-Dawley rat at 50 mg/kg, po measured after 24 hrs by LC-MS/MS analysis; format: ADME, organism-based; conditions: in vivo
Mus musculus = assay: In vivo inhibition of EGFR signaling in BALB/c nude mouse xenografted with human […] cells assessed as reduction in EGFR phosphorylation at 25 to 100 mg/kg, po administered once daily for 31 days by Western blot analysis; format: functional, organism-based; conditions: dose 25-100 mg/kg, time 31.0 day
[2] = Potency index, ratio of brigatinib IC50 to test compound IC50 for antiproliferative activity against human […] cells harboring EGFR L858R/T790M/C797S mutant assessed as inhibition of cell growth incubated for 72 hrs by CCK-8 assay; format: functional, H1975-TM
[3] = tested on: Protein cereblon/Epidermal growth factor receptor (Homo sapiens), P00533+Q96SW2 [L858R,T790M,C797S]; assay: PROTAC activity at CRBN/EGFR L858R/T790M/C797S mutant in human H1975-TM cells assessed as induction of EGFR degradation by measuring remaining activity at 33 nM incubated for 24 hrs by Western blot analysis (reference value: 100%); format: cell-based
H1975-TM [4] = assay: Induction of apoptosis in human H1975-TM cells harboring EGFR L858R/T790M/C797S mutant incubated for 24 hrs by Annexin V-FITC/PI staining based flow cytometric analysis; format: functional, cell-based; conditions: dose 33-100 nM
[5] = Toxicity in BALB/c nude mouse xenografted with human H1975-TM cells assessed as effect on body weight at 25 to 100 mg/kg, po administered once daily for 31 days; format: organism-based; conditions: in vivo, 744 h, dose 25-100 mg/kg, time 31 day
[6] = Antiproliferative activity against human HI975-TM cells harboring EGFR L858R/T790M/C797S mutant assessed as inhibition of cell growth incubated for 72 hrs by CCK-8 assay; format: functional, cell-based; conditions: H1975-TM
[7] = molecular target: Epidermal growth factor receptor (Homo sapiens, UniProt P00533, C797S/L858R/T790M); assay: Binding affinity to EGFR L858R/T790M/C797S mutant (unknown origin) assessed as dissociation constant incubated for 10 mins under dark condition by MST analysis
Sequence of Epidermal growth factor receptor (P00533 25-1210 T790M/C797S/L858R limits assumed): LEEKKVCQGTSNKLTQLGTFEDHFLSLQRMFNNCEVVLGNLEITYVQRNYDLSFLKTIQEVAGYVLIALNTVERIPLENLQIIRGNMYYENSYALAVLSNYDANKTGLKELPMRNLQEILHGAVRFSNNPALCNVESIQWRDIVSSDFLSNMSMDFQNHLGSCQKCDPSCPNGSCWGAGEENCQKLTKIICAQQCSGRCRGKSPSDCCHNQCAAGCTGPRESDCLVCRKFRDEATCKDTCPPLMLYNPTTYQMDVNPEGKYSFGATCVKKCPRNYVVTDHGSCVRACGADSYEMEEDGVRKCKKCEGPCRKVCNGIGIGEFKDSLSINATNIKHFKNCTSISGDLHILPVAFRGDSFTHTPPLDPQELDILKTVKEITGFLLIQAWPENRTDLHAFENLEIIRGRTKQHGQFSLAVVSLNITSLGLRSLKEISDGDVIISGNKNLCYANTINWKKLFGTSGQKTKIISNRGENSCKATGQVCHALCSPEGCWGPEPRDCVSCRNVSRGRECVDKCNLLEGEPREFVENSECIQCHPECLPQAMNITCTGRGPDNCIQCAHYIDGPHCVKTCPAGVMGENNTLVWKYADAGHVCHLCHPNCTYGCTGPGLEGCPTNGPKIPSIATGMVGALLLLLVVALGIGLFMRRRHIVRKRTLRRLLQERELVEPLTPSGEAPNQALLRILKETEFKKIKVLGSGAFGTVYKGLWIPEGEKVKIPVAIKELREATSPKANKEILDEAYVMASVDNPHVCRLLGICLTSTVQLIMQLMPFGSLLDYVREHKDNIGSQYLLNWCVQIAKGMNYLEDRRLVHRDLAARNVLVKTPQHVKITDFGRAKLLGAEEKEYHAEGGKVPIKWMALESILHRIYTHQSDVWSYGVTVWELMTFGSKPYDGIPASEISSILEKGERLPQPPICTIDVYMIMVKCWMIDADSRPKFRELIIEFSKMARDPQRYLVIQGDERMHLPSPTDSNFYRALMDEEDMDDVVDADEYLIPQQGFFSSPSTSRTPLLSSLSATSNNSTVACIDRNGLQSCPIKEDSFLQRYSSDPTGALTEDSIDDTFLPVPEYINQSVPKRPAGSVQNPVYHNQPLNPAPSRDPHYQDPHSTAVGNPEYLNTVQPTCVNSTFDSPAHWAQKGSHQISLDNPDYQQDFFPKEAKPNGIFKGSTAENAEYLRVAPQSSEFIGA

[8] = Antitumor activity against human H1975-TM cells xenografted in BALB/c nude mouse assessed as tumor growth inhibition at 25 mg/kg, po administered once daily for 31 days relative to control; format: functional; conditions: 744 h, time 31 day, read-out: TGI
[9] = Antiproliferative activity against human PC-9-TM cells harboring EGFR exon 19 deletion/T790M/[…] mutant assessed as inhibition of cell proliferation incubated for 72 hrs by CCK8 assay; format: functional, cell-based
[10] = molecular target: Protein cereblon/Epidermal growth factor receptor (Homo sapiens, UniProt P00533+Q96SW2, T790M/C797S/L858R); assay: PROTAC activity at CRBN/EGFR L858R/T790M/C797S mutant in human H1975-TM cells assessed as induction of EGFR degradation incubated for 24 hrs by Western blot analysis; format: cell-based
Sequence of Protein cereblon/Epidermal growth factor receptor (P00533 25-1210 T790M/C797S/L858R limits assumed, stated change not applied): as the sequence (P00533 25-1210 T790M/C797S/L858R limits assumed) above
Sequence of Protein cereblon/Epidermal growth factor receptor (Q96SW2 whole entry, stated change not applied): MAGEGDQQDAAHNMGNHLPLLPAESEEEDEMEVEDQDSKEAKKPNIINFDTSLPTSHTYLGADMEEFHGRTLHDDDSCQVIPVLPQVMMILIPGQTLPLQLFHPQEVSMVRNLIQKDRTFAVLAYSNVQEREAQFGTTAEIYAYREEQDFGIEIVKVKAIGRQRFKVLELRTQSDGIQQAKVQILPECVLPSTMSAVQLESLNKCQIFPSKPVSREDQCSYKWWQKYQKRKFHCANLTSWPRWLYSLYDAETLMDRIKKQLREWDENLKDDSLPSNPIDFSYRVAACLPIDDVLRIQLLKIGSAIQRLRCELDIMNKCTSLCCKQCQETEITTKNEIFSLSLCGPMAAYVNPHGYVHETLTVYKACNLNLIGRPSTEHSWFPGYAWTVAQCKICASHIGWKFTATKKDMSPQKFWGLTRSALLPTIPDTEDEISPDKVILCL

[11] = tested on: Protein cereblon/Epidermal growth factor receptor (Homo sapiens), P00533+Q96SW2 [L858R,T790M,C797S]; assay: PROTAC activity at CRBN/EGFR L858R/T790M/C797S mutant in human H1975-TM cells assessed as induction of EGFR degradation by measuring remaining activity at 3.7 nM incubated for 24 hrs by Western blot analysis (reference value: 100%); format: cell-based
[12] = Half-life in male Sprague-Dawley rat at 50 mg/kg, po measured after 24 hrs by LC-MS/MS analysis; format: ADME, organism-based; conditions: in vivo
[13] = Cmax in male Sprague-Dawley rat at 5 mg/kg, iv measured after 24 hrs by LC-MS/MS analysis; format: ADME, organism-based; conditions: in vivo
[14] = tested on: Protein cereblon/Epidermal growth factor receptor (Homo sapiens), P00533+Q96SW2 [L858R,T790M,C797S]; assay: PROTAC activity at CRBN/EGFR L858R/T790M/C797S mutant in human H1975-TM cells assessed as induction of EGFR degradation by measuring remaining activity at 100 nM preincubated for 24 hrs followed by compound washout and measured after 12 hrs by Western blot analysis (reference value: 100%); format: cell-based
[15] = molecular target: Cyclin-dependent kinase 16 (Homo sapiens) (UniProt Q00536); assay: Induction of CDK16 degradation in human H1975-TM cells at 50 nM incubated for 24 hrs; format: cell-based
Sequence of Cyclin-dependent kinase 16 (Homo sapiens) (Q00536 whole entry): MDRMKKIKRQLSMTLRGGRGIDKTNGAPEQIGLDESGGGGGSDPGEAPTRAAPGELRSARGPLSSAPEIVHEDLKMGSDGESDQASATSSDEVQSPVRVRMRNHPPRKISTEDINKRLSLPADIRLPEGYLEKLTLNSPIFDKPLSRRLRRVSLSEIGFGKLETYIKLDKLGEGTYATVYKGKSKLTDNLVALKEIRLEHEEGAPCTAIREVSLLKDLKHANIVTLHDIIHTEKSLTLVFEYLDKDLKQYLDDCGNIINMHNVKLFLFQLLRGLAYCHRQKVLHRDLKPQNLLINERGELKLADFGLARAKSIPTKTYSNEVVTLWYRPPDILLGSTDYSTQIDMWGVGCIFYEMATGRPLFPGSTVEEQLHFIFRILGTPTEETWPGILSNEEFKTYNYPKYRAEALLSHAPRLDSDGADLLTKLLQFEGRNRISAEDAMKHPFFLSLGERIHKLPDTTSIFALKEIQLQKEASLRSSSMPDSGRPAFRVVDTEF

[16] = molecular target: Ribosomal protein S6 kinase alpha-1 (Homo sapiens) (UniProt Q15418); assay: Induction of RPS6KA1 degradation in human H1975-TM cells at 50 nM incubated for 24 hrs; format: cell-based
Sequence of Ribosomal protein S6 kinase alpha-1 (Homo sapiens) (Q15418 whole entry): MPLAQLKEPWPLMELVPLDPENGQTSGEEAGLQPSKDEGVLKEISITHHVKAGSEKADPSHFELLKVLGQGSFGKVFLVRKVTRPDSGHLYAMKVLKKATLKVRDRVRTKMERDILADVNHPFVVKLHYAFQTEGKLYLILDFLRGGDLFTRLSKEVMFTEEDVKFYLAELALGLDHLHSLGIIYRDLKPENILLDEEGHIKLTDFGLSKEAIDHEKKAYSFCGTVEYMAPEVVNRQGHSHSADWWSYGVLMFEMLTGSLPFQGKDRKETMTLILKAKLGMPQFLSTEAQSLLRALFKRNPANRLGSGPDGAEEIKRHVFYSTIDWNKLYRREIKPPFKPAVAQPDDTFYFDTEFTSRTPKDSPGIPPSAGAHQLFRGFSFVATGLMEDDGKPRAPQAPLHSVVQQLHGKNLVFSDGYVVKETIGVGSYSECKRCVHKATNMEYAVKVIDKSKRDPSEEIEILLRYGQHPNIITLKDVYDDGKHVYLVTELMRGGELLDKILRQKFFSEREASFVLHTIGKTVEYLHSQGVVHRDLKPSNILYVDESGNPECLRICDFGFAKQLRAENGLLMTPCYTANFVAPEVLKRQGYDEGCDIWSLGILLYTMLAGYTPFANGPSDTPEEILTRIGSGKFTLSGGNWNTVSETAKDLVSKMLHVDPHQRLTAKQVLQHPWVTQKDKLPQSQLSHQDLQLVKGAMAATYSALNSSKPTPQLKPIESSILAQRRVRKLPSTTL

[17] = Tmax in male Sprague-Dawley rat at 5 mg/kg, iv measured after 24 hrs by LC-MS/MS analysis; format: ADME, organism-based; conditions: in vivo
[18] = molecular target: Sodium-coupled neutral amino acid symporter 2 (Homo sapiens) (UniProt Q96QD8); assay: Induction of SLC38A2 degradation in human H1975-TM cells at 50 nM incubated for 24 hrs; format: cell-based
Sequence of Sodium-coupled neutral amino acid symporter 2 (Homo sapiens) (Q96QD8 whole entry): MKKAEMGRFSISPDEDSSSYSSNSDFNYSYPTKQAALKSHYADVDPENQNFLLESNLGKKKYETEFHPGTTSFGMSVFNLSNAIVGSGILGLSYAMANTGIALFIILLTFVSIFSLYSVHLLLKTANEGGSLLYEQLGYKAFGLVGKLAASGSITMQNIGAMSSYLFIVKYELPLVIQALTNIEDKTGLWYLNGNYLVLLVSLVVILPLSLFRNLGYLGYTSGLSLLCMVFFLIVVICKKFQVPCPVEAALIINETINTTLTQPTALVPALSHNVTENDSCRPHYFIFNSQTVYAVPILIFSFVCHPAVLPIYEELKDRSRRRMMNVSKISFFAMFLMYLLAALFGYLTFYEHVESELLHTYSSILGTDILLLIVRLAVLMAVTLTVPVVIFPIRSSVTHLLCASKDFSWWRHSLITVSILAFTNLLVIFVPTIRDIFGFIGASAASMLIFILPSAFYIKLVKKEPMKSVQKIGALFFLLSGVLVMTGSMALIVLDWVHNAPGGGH

[19] = Half-life in male Sprague-Dawley rat at 5 mg/kg, iv measured after 24 hrs by LC-MS/MS analysis; format: ADME, organism-based; conditions: in vivo
[20] = tested on: Protein cereblon/Epidermal growth factor receptor (Homo sapiens), P00533+Q96SW2 [L858R,T790M,C797S]; assay: PROTAC activity at CRBN/EGFR L858R/T790M/C797S mutant in human H1975-TM cells assessed as induction of EGFR degradation by measuring remaining activity at 11 nM incubated for 24 hrs by Western blot analysis (reference value: 100%); format: cell-based
[21] = tested on: Protein cereblon/Epidermal growth factor receptor (Homo sapiens), P00533+Q96SW2 [L858R,T790M,C797S]; assay: PROTAC activity at CRBN/EGFR L858R/T790M/C797S mutant in human H1975-TM cells assessed as induction of EGFR degradation by measuring remaining activity at 50 nM incubated for 24 hrs by Western blot analysis (reference value: 100%); format: cell-based
[22] = tested on: Protein cereblon/Epidermal growth factor receptor (Homo sapiens), P00533+Q96SW2 [L858R,T790M,C797S]; assay: PROTAC activity at CRBN/EGFR L858R/T790M/C797S mutant in human H1975-TM cells assessed as induction of EGFR degradation by measuring remaining activity at 100 nM incubated for 12 hrs by Western blot analysis (reference value: 100%); format: cell-based
H1975-TM [23] = assay: Antitumor activity against human H1975-TM cells xenografted in BALB/c nude mouse assessed as increase in tumor necrosis at 25 to 100 mg/kg, po administered once daily for 31 days by H&E staining based light microscopic analysis; format: functional, organism-based; conditions: dose 25-100 mg/kg, time 31.0 day
[24] = Toxicity in BALB/c nude mouse xenografted with human H1975-TM cells assessed as heart lesions at 25 to 100 mg/kg, po administered once daily for 31 days by Hematoxylin and eosin staining based analysis; format: organism-based; conditions: in vivo, 744 h, dose 25-100 mg/kg, time 31 day
H1975-TM [25] = assay: Antitumor activity against human H1975-TM cells xenografted in BALB/c nude mouse assessed as decrease in tumor cell proliferation at 25 to 100 mg/kg, po administered once daily for 31 days by Ki67 staining based light microscopic analysis; format: functional, organism-based; conditions: dose 25-100 mg/kg, time 31.0 day
[26] = molecular target: Aurora kinase B (Homo sapiens) (UniProt Q96GD4); assay: Induction of AURKB degradation in human H1975-TM cells at 50 nM incubated for 24 hrs; format: cell-based
Sequence of Aurora kinase B (Homo sapiens) (Q96GD4 whole entry): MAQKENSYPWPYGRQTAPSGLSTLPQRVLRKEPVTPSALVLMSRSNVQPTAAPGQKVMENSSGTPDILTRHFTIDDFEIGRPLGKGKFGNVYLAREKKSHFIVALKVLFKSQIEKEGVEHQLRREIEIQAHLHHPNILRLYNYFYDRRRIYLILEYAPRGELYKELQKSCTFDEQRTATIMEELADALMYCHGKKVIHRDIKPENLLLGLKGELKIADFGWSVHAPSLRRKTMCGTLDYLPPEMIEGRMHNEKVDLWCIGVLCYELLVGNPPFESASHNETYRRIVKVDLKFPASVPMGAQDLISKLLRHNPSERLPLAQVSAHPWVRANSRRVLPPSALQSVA

[27] = tested on: Protein cereblon/Epidermal growth factor receptor (Homo sapiens), P00533+Q96SW2 [L858R,T790M,C797S]; assay: PROTAC activity at CRBN/EGFR L858R/T790M/C797S mutant in human H1975-TM cells assessed as induction of EGFR degradation by measuring remaining activity at 50 nM preincubated with MLN4924 for 6 hrs followed by compound addition and measured after 24 hrs by Western blot analysis (reference value: 100%); format: cell-based

For `CCS(=O)(=O)n1cc(-c2nc(Nc3ccc(N4CCN(CCCCCCC(=O)Nc5cccc6c5CN(C5CCC(=O)NC5=O)C6=O)CC4)cc3)ncc2C(F)(F)F)c2ccccc21` (stereo not drawn), the Tmax [1] was 5.7 h, the inhibition (Mus musculus) was “Active” and the “Ratio IC50” value [2] was 55. The Activity [3] was 6.5%, the Activity (H1975-TM [4]) was “Dose-Dependent Effect” and the Activity [5] was “Non-Toxic”. The IC50 [6] was 10.3 nM, the Kd [7] was 240 nM and the inhibition in vivo at 25 mg/kg [8] was 48.1%. It also gave an IC50 [9] of 43.5 nM, a DC50 [10] of 10.2 nM and an Activity [11] of 46.6%. For the same molecule, the half-life [12] was 654 min, the Cmax [13] was 4600 ng/mL and the Activity [14] was 49.7%. The Activity [15] was “Active”, the Activity [16] was “Active” and the Tmax [17] was 4.8 min. The Activity [18] was “Active”, the half-life [19] was 2280 min and the Activity [20] was 33.5%. For the same molecule, the Activity [21] was 5.8%, the Activity [22] was 44.5% and the Activity (H1975-TM [23]) was “Active”. For the same molecule, the Activity [24] was “Non-Toxic”, the Activity (H1975-TM [25]) was “Active” and the Activity [26] was “Active”. It also gave an Activity [27] of 51.7%.
